Results as given in the supplement of paper PMC3770661.
Where a name gives a salt, the structure may show the parent alone. ± gives the uncertainty stated by the source.

Tested on: HepG2 (L1.3 5'UTR promoter firefly luciferase reporter)
Assay: L1 promoter activity (FLuc/RLuc) relative to DMSO vehicle control (% of control); higher = stronger L1 promoter activation

CCOC(=O)C1=C(COCCN)NC(C)=C(C(=O)OC)C1c1ccccc1Cl (centres undefined) [Amlodipine besylate]
Conditions | L1 promoter activity
concentration (uM unless unit written): 0.5, treatment time: 6 h | 93.6 ± 11
concentration (uM unless unit written): 0.5, treatment time: 24 h | 105 ± 8.9
concentration (uM unless unit written): 1, treatment time: 6 h | 104 ± 10
concentration (uM unless unit written): 1, treatment time: 24 h | 101 ± 22
concentration (uM unless unit written): 2, treatment time: 6 h | 95.7 ± 7.8
concentration (uM unless unit written): 2, treatment time: 24 h | 107 ± 12
concentration (uM unless unit written): 10, treatment time: 6 h | 85.2 ± 8.2

O=C(O)c1ccccc1Nc1cccc(C(F)(F)F)c1 [Flufenamic acid]
Conditions | L1 promoter activity
concentration (uM unless unit written): 62.5, treatment time: 6 h | 130 ± 7.7
concentration (uM unless unit written): 62.5, treatment time: 24 h | 158 ± 19
concentration (uM unless unit written): 125, treatment time: 6 h | 119 ± 14
concentration (uM unless unit written): 125, treatment time: 24 h | 120 ± 20
concentration (uM unless unit written): 250, treatment time: 6 h | 129 ± 21

C=C1[C@@H](C)[C@H]2[C@H](Cc3ccccc3)NC(=O)[C@]23[C@H](OC(C)=O)/C=C/[C@@](C)(O)C(=O)[C@@H](C)C/C=C/[C@H]3[C@@H]1O [Cytochalasin D]
Conditions | L1 promoter activity
concentration (uM unless unit written): 0.1, treatment time: 6 h | 110 ± 13
concentration (uM unless unit written): 0.1, treatment time: 24 h | 106 ± 11
concentration (uM unless unit written): 0.5, treatment time: 6 h | 101 ± 7.4
concentration (uM unless unit written): 0.5, treatment time: 24 h | 128 ± 8.5
concentration (uM unless unit written): 1, treatment time: 6 h | 106 ± 12
concentration (uM unless unit written): 1, treatment time: 24 h | 167 ± 16
concentration (uM unless unit written): 10, treatment time: 6 h | 98.6 ± 13
concentration (uM unless unit written): 10, treatment time: 24 h | 295 ± 20

N.N.[Cl][Pt][Cl] [Cisplatin]
Conditions | L1 promoter activity
concentration (uM unless unit written): 10, treatment time: 6 h | 109 ± 13
concentration (uM unless unit written): 10, treatment time: 24 h | 98.4 ± 13
concentration (uM unless unit written): 50, treatment time: 6 h | 117 ± 23
concentration (uM unless unit written): 50, treatment time: 24 h | 105 ± 7.7
concentration (uM unless unit written): 100, treatment time: 6 h | 148 ± 40
concentration (uM unless unit written): 100, treatment time: 24 h | 95.4 ± 19

Nc1ccn([C@@H]2O[C@H](CO)[C@@H](O)[C@@H]2O)c(=O)n1 [Cytosine arabinoside]
Conditions | L1 promoter activity
concentration (uM unless unit written): 125, treatment time: 6 h | 101 ± 8
concentration (uM unless unit written): 125, treatment time: 24 h | 106 ± 3.7
concentration (uM unless unit written): 250, treatment time: 6 h | 95.2 ± 5.5
concentration (uM unless unit written): 250, treatment time: 24 h | 105 ± 4.4
concentration (uM unless unit written): 500, treatment time: 6 h | 102 ± 8.1
concentration (uM unless unit written): 500, treatment time: 24 h | 103 ± 6.2

CN1CCC(=C2c3ccccc3C=Cc3ccccc32)CC1 [Cyproheptadine hydrochloride sesquihydrate]
Conditions | L1 promoter activity
concentration (uM unless unit written): 50, treatment time: 6 h | 90.1 ± 17
concentration (uM unless unit written): 50, treatment time: 24 h | 70.2 ± 14
concentration (uM unless unit written): 100, treatment time: 6 h | 74.7 ± 30
concentration (uM unless unit written): 200, treatment time: 6 h | 47.2 ± 12

COC(=O)[C@H](c1ccccc1Cl)N1CCc2sccc2C1 [Clopidogrel]
Conditions | L1 promoter activity
concentration (uM unless unit written): 10, treatment time: 6 h | 96.7 ± 8.6
concentration (uM unless unit written): 10, treatment time: 24 h | 113 ± 5.2
concentration (uM unless unit written): 25, treatment time: 6 h | 98.5 ± 12
concentration (uM unless unit written): 25, treatment time: 24 h | 113 ± 14
concentration (uM unless unit written): 50, treatment time: 6 h | 92.9 ± 6
concentration (uM unless unit written): 50, treatment time: 24 h | 110 ± 9.2
concentration (uM unless unit written): 100, treatment time: 6 h | 84.6 ± 4.5
concentration (uM unless unit written): 100, treatment time: 24 h | 107 ± 12
